{"source": "paper PMC7587333", "about": "“Synthesis, Molecular Docking, and In Vitro Boron Neutron Capture Therapy Assay of Carboranyl Sinomenine” (Molecules, 2020)", "key": {"[1]": {"test_system": "rat C6 glioma cells", "parameters": "method as in PMID 31260876", "conditions": "cited from earlier work"}, "[2]": {"test_system": "rat FLS cells", "parameters": "method as in PMID 15980490", "conditions": "cited from earlier work"}, "[3]": {"test_system": "malignant cells", "conditions": "background statement, no reference given; cited from earlier work"}, "[4]": {"test_system": "rat C6 gliosarcoma cells", "assay": "In vitro survival study (BNCT, thermal neutron irradiation, colony formation), C6 cells", "assay_type": "cell-based", "conditions": "C6 gliosarcoma tumor cells", "source_text": "(§1) The preliminary in vitro killing effects of compound 3 were examined by using rat C6 gliosarcoma tumor cells and fibroblast-like synoviocytes (FLS) cells, respectively. The in vitro survival study was completed with the thermal neutron fluence ranging from 0 to 4.2 × 10^12 n/cm^2. The γ-ray dose presented in the experiment was monitored by thermoluminescent dosimeters (TLDs) attached to the tubes and ranged from 0 to 5 Sv. […] A low surviving fraction of around 0.01 was obtained by compound 3 after irradiation for 50 min.\n(§2) The in vitro assessments were carried out according to methods reported in the literature. […] The inability of cells to adhere to Teflon allows precise quantitative manipulation of cells without trypsinization. […] The thermal neutron fluence was determined by averaging the activity of two gold films symmetrically attached to the Teflon tube surface along the thermal neutron axis. […] The neutron absorbed dose (Gy) was calculated using the flux-to-dose conversion factor [39, 40]. […] The γ-ray dose was monitored by thermoluminescent dosimeters (TLDs) (Kyoto, Japan) attached to the tubes, and it ranged from 0 to 5 Sv. […] The colonies were fixed and stained with a 10% formaldehyde/1% toluidine blue solution and then counted microscopically.\n(§3) The in vitro BNCS was carried out in triplicate. […] The significance of the differences in survival rates was assessed by Student’s t-test. […]"}, "[5]": {"test_system": "rat fibroblast-like synoviocytes (FLS) cells", "assay": "In vitro survival study (BNCS, thermal neutron irradiation, colony formation), FLS cells", "assay_type": "cell-based", "conditions": "same operating conditions as L-BPA", "source_text": "as §1, §2, §3"}, "[6]": {"test_system": "rat FLS cells", "assay": "Cytotoxicity study, standard MTT assay", "assay_type": "cell-based", "conditions": "3 days of continuous exposure, no irradiation, read-out: IC50 (growth inhibition, cytotoxicity)", "method": "The IC50 (moles/liter, M), the concentration that inhibited the growth of rat FLS cells by 50% after 3 days of continuous exposure, was determined using the standard MTT assay. Suspensions of 4.9 × 10^5 of rat fibroblast-like synoviocytes cells /200 μL MEM containing 20% FCS were incubated for 3 days using 96-well culture plates with various concentrations of the samples in dimethyl sulfoxide (DMSO). The damaged cells were detected at 490 nm optical absorbance by Aqueous One Solution Cell Proliferation Assay.\nFigure S-4. 1H NMR of 3 in DMSO-d6.\n2. Cytotoxicity study. For IC50 analysis, the standard MTT method was used to analyze IC50 of compound 3. The IC50 determinations were performed in the presence of serial dilutions of inhibitor (1000 μM to 3.906 µM, 1% DMSO, final) in complete reaction buffer and incubated for […].\nFigure S-5. IC50 dose responsive curve of 3 for rat FLS cells. […]"}, "[7]": {"test_system": "rat C6 glioma cells", "assay": "Uptake of boron by rat C6 glioma cells (ICP-AES)", "assay_type": "cell-based", "conditions": "24 h culture with boron agent", "source_text": "(§4) The rat C6 glioma cells and fibroblast-like synoviocytes (FLS) cells were used to conduct the boron uptake of 3. The boron uptakes of clinically used L-BPA and BSH were also listed for comparation. The results reveal that 3 was able to permeate both C6 glioma cells and FLS cells. […] The higher membrane permeability provides enhanced boron concentration in the cell lines. […] Nevertheless, the detailed mechanism of 3 crossing cell membrane warrants further investigation.\n(§5) According to literature, 3.7 × 10^8 rat FLS cells or 2.6 × 10^7 rat C6 glioma cells were seeded and cultured at […] (37 °C, 5% CO2) for 24 hrs. This culture fluid was removed therefrom by suction, culture fluids containing 1.5 mM of boron agent 3 with the boron concentrations of 3.0 mM, 1.5 mM, 18.0 mM, and 1.5 mM, respectively, were added and continued culturing for 24 h under the same conditions. These culture fluids were removed by suction and the cells were washed three times with PBS and treated with trypsin to recover the cells. The number of cells recovered was counted, and HNO3 (2N, 1.5 mL) was added and the resulting mixture was heated at 80 °C for 12 h. After filtering using a membrane filter, the boron concentration was determined by ICP-AES (Singapore)."}, "[8]": {"test_system": "rat FLS cells", "assay": "Uptake of boron by rat fibroblast-like synoviocytes cells (ICP-AES)", "assay_type": "cell-based", "conditions": "24 h culture with boron agent", "source_text": "as §4, §5"}, "[9]": {"assay": "Solubility in organic solvents", "assay_type": "physicochemical", "conditions": "organic solvents such as DMF, THF and DMSO", "source_text": "Carboranyl sinomenine product was synthesized by a straightforward method as shown in Scheme 1. In this process, sinomenine anion was generated in situ from the reaction of sinomenine (1) with the excess quantity of potassium carbonate in N,N-dimethyl formide (DMF) solvent at room temperature under argon atmosphere. The resulting sinomenine anion reacted with 4-(methyl-ortho-carboranyl)-n-butyl iodide (2), prepared according to the literature method, to produce the carboranyl sinomenine (3) as a colorless solid in 54.3% yield after recrystallization from tetrahydrofuran (THF) solvent."}}, "note": "Read-outs that look alike come from different tables or passages of the source."}
{"molecule": "N[C@@H](Cc1ccc(B(O)O)cc1)C(=O)O", "note": "[L-BPA, 4-borono-L-phenylalanine]", "values": [{"measurement": "Boron amounts delivered to the cells", "setting": "[1]", "value": "0.67 [21] μg/10^7 cells"}, {"measurement": "Boron amounts delivered to the cells", "setting": "[2]", "value": "0.74 [31] μg/10^7 cells"}, {"measurement": "Concentration in malignant cells relative to blood and other healthy cells", "setting": "[3]", "value": "2–4 times"}]}
{"molecule": "methylcarboranyl-n-butyl sinomenine [Compound 3]", "values": [{"measurement": "Surviving fraction", "setting": "[4]; after thermal neutron irradiation for 50 min", "value": "around 0.01"}, {"measurement": "Killing effect improved compared with L-BPA", "setting": "[4]; thermal neutron irradiation, same operating conditions as L-BPA", "value": "approximately nine times"}, {"measurement": "Killing effects enhanced compared with L-BPA", "setting": "[5]", "value": "approximately three times"}, {"measurement": "IC50", "setting": "[6]", "value": "310.4 ± 0.3", "unit": "µM"}, {"measurement": "Boron amounts delivered to the cells", "setting": "[7]", "value": 4.25, "unit": "μg/10^7 cells"}, {"measurement": "Boron amounts delivered to the cells", "setting": "[8]", "value": 3.04, "unit": "μg/10^7 cells"}, {"measurement": "Solubility", "setting": "[9]", "value": "soluble in various organic solvents"}]}
{"molecule": "sodium borocaptate [BSH]", "values": [{"measurement": "Boron amounts delivered to the cells", "setting": "[1]", "value": "2.14 [21] μg/10^7 cells"}, {"measurement": "Boron amounts delivered to the cells", "setting": "[2]", "value": "1.82 [31] μg/10^7 cells"}]}
